Measured values: patent US20220009920A1 (GB005, Inc., priority 2020, published 2022)

Key:
Assay in all cases: Large panel kinase profiling
Format in all cases: biochemical
Conditions in all cases: 1 μM test article, 1 mM ATP
TSSK1 = target: T1, TSSK1 (Homo sapiens, UniProt Q9BXA7)
T1 construct: AssayQuant Technologies, Inc. (contract laboratory that ran the panel)
T1 sequence (Q9BXA7 1-367): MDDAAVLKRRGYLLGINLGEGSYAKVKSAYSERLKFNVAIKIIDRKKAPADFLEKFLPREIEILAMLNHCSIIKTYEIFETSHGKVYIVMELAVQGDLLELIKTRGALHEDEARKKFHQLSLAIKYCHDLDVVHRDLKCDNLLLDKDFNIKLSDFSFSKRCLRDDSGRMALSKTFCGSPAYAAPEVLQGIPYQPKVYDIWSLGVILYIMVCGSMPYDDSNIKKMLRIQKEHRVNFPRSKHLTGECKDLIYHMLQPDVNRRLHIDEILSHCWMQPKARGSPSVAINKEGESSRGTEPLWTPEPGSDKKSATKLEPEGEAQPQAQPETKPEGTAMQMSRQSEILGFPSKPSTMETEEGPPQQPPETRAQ
How it was run: (§1)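 CSox-Sensor fluorescence readout; test article 1 μM, ATP 1 mM, 30° C.; kinetic reads at 1-min intervals, Ex 360/Em 485 nm.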

SK2 = target: T2, SK2 (Homo sapiens, UniProt Q9H0K1)
T2 construct: AssayQuant Technologies, Inc. (contract assay)
T2 sequence (Q9H0K1 whole entry): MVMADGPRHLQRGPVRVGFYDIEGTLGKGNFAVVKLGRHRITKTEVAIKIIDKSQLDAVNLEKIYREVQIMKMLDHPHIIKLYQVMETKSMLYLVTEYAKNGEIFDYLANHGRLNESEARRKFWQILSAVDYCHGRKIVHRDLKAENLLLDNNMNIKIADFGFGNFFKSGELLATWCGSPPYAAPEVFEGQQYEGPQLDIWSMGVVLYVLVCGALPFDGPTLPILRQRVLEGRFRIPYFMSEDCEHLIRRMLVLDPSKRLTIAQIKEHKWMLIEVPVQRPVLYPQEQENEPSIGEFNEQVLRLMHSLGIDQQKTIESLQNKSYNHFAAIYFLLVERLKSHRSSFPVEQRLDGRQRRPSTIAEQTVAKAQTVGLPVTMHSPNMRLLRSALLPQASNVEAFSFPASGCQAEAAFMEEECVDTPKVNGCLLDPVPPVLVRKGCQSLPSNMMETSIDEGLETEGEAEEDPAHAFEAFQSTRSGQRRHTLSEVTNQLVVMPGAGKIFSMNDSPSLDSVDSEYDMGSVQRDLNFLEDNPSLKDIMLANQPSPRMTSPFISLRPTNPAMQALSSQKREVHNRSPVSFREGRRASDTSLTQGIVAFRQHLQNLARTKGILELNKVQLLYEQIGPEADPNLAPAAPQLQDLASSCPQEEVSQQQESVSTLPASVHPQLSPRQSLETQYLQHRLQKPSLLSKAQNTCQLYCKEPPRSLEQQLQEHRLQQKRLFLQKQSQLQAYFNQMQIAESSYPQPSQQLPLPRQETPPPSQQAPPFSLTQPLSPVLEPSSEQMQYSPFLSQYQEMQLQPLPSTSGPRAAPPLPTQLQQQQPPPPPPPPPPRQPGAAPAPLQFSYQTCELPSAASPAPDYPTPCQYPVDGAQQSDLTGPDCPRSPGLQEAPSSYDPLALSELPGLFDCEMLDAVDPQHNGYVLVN
How it was run: as §1

FER = FER (Homo sapiens, UniProt P16591)
Chain of FER (P16591 whole entry, species assumed): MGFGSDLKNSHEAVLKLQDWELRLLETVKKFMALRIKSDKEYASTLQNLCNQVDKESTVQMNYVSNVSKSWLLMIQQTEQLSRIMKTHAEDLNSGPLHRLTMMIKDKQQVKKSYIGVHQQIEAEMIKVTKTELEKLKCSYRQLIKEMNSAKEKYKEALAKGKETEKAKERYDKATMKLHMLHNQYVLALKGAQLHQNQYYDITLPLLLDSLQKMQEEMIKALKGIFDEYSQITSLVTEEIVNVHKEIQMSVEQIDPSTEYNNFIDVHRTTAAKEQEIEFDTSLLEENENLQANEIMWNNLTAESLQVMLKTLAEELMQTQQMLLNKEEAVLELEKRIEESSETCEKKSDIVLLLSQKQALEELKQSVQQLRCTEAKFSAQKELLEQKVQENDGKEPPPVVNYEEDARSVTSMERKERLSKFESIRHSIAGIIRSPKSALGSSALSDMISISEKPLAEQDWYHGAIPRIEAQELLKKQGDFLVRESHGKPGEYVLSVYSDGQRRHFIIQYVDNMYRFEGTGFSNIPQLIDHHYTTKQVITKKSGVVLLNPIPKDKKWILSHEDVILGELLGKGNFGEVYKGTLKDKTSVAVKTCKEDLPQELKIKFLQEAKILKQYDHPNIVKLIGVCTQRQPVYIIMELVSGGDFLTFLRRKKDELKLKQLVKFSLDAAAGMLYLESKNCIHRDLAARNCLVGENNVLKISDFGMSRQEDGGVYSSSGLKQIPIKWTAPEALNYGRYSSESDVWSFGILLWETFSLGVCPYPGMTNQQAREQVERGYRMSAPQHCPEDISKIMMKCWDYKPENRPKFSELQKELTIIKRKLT
How it was run: as §1

SYK = target: T3, SYK (Homo sapiens, UniProt P43405)
T3 construct: AssayQuant Technologies, Inc. (contract assay)
How it was run: as §1

CAMK1D = CAMK1D (Homo sapiens, UniProt Q8IU85)
Chain of CAMK1D (Q8IU85 whole entry): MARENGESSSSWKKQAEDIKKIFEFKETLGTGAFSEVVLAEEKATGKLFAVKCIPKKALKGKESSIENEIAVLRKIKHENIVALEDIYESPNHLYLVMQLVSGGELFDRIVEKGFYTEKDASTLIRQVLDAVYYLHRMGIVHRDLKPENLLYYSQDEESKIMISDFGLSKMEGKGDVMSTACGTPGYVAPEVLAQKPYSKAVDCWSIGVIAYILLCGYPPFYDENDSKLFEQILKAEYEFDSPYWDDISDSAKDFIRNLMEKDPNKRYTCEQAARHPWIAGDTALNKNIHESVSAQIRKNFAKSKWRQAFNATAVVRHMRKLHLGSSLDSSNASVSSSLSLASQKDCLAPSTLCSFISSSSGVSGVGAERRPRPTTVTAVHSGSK
How it was run: as §1

PRKCA/PKCA = PRKCA/PKCA (Homo sapiens, UniProt P17252)
How it was run: as §1

CDK18 = target: T4, CDK18 (Homo sapiens, UniProt Q07002)
T4 construct: AssayQuant Technologies, Inc. (ran the panel)
T4 sequence (Q07002 whole entry, species assumed): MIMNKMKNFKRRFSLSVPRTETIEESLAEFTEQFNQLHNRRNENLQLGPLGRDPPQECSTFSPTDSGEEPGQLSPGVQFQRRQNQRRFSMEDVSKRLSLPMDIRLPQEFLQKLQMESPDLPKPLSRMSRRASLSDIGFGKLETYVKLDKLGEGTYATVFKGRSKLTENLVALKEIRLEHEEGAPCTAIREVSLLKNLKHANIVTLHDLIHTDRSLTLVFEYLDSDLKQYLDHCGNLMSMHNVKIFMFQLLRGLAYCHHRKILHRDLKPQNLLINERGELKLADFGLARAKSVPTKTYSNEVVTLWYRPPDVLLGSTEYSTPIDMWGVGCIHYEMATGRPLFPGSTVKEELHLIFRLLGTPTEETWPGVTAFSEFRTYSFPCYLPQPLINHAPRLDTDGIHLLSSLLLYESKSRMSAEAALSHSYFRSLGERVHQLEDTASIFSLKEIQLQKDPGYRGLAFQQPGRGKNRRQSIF
T4 sequence (Q8ND76 whole entry partner, species assumed): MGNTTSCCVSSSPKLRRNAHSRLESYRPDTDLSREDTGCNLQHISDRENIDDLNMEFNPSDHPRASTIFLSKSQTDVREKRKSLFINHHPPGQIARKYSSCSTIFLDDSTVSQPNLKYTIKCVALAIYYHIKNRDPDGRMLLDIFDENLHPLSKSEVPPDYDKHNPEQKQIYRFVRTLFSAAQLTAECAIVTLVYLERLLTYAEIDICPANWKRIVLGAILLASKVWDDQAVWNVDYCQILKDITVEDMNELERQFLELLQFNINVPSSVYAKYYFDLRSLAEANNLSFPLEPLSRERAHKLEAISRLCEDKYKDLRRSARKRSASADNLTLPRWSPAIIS
How it was run: as §1

MYLK2 = target: T5, MYLK2 (Homo sapiens, UniProt Q9H1R3)
T5 construct: AssayQuant Technologies, Inc. (assay service)
How it was run: as §1

EPHA8 = target: T6, EPHA8 (Homo sapiens, UniProt P29322)
T6 sequence (P29322 28-1005): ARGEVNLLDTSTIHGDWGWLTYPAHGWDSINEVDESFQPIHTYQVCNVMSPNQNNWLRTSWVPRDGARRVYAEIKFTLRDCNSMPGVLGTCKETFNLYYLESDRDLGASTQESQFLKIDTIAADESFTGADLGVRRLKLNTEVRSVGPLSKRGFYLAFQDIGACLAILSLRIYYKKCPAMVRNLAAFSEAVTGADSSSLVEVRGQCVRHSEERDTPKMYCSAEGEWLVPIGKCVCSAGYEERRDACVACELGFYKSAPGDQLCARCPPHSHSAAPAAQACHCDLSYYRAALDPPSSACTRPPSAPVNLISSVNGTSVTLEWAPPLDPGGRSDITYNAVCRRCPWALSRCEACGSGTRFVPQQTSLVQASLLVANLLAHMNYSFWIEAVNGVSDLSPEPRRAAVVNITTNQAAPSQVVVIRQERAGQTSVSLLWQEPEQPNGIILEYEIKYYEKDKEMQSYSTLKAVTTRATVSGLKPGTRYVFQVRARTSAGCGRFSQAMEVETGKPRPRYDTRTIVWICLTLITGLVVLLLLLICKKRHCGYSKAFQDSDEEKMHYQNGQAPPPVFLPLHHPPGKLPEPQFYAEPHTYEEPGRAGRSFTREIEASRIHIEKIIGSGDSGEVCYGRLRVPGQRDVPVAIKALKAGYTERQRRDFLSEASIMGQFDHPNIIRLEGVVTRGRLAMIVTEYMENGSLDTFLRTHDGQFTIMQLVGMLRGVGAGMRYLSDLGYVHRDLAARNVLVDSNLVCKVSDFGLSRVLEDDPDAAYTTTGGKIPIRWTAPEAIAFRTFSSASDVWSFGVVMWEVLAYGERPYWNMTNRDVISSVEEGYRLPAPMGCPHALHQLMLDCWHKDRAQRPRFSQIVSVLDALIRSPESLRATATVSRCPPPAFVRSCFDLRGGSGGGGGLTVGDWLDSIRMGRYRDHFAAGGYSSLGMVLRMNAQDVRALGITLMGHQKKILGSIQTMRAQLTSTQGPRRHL
How it was run: as §1

KDR = KDR (Homo sapiens, UniProt P35968)
Chain of KDR (P35968 20-1356, species assumed): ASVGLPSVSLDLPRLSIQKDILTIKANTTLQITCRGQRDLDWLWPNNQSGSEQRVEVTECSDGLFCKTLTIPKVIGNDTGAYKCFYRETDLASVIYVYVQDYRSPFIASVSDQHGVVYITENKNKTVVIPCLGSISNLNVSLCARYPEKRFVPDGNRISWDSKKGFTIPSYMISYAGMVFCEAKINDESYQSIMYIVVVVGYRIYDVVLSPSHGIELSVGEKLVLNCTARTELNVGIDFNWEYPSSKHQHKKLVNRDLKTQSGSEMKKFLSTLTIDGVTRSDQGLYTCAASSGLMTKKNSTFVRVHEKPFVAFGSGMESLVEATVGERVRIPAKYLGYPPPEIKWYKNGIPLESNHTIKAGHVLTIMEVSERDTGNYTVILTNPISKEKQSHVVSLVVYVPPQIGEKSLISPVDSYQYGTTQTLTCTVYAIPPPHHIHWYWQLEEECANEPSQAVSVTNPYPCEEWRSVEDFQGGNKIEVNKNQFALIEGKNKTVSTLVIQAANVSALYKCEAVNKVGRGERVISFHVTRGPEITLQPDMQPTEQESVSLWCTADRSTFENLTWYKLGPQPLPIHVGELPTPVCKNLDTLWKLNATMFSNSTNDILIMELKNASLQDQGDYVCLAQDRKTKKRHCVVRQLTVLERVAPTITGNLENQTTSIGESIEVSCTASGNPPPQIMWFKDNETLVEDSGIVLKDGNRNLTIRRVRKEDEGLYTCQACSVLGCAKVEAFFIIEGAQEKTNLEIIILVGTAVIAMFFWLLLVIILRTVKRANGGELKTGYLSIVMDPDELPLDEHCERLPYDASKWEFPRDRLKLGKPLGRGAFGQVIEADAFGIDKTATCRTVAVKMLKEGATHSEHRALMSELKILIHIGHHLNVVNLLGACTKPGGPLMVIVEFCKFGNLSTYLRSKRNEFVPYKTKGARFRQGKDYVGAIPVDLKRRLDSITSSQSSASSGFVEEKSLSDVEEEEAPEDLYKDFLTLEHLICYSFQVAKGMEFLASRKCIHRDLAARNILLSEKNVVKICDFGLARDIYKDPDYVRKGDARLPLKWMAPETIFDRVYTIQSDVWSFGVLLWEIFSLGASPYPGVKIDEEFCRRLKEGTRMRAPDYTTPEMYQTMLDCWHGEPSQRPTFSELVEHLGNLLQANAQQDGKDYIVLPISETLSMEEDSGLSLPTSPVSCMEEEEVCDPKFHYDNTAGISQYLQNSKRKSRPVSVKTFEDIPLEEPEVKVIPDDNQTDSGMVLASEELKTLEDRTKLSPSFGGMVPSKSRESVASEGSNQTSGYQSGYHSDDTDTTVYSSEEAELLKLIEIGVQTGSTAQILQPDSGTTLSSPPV
How it was run: as §1

MAP3K7 = target: T7, MAP3K7 (Homo sapiens, UniProt O43318)
T7 construct: AssayQuant Technologies, Inc. (service provider)
T7 sequence (O43318 1-303 limits assumed): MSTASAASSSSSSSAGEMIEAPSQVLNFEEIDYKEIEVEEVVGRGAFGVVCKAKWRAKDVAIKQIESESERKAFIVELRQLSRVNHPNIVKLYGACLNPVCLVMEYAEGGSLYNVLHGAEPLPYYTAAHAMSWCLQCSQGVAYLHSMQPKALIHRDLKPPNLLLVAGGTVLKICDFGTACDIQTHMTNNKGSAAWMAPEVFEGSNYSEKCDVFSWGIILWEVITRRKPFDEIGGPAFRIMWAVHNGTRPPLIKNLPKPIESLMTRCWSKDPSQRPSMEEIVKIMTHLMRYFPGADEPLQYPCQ
How it was run: as §1

Compound | inhibition at 1 µM (TSSK1) [%] | inhibition at 1 µM (SK2) [%] | inhibition at 1 µM (FER) [%] | inhibition at 1 µM (SYK) [%] | inhibition at 1 µM (CAMK1D) [%] | inhibition at 1 µM (PRKCA/PKCA) [%] | inhibition at 1 µM (CDK18) [%] | inhibition at 1 µM (MYLK2) [%] | inhibition at 1 µM (EPHA8) [%] | inhibition at 1 µM (KDR) [%] | inhibition at 1 µM (MAP3K7) [%]
C=CC(=O)N1CCCC(c2c(F)cc(C(N)=O)c3[nH]c4c(c23)CCCCC4)C1 (single isomer, unassigned) [Compound 5-6] | 7.3 | -0.1 | 32 | 2.8 | 19.6 | 2.3 | 19 | 16.8 | 10 | 10.3 | -19.6
C=CC(=O)N1CCC[C@@H](c2c(F)cc(C(N)=O)c3[nH]c4c(c23)CCC4)C1 [Compound 10-2, (S)-8-(1-acryloylpiperidin-3-yl)-7-fluoro-1,2,3,4-tetrahydrocyclo-penta[b]indole-5-carboxamide] | 14 | 23.9 | 29.3 | -14.1 | 10.5 | -3.5 | 2 | -33.6 | -19.1 | 32.7 | 13.2
C=CC(=O)N1CCC[C@@H](c2c(F)cc(C(N)=O)c3[nH]c4c(c23)CC2(CC4)CC2)C1 [Compound 6-2, (S)-5-(1-acryloylpiperidin-3-yl)-6-fluoro-1,2,4,9-tetrahydrospiro[carbazole-3,1′-cyclopropane]-8-carboxamide] | -3 | 7.7 | 2.1 | -5.3 | 26.1 | 14.7 | -15 | -28.4 | -15.3 | 31.6 | 10
